Data on 40 compounds can be found in ChEMBL document CHEMBL3507680, “University of Dundee, Gates Library screen for HepG2 cell viability”.

This data set is described as follows: Human HepG2 cell viability assay in 384 well format. As to conditions: HepG2 cells, read-out: Inhibition. On the set-up: dose 125 nL, time 70.5 hour; concentration not given beside the values. It counts as toxicity, cell-based.

For `CN(Cc1ccc2c(c1)OCO2)Cc1nc(-c2ccco2)no1`, the cytotoxicity at 70.5 h was -10.9%.
Then `CCOc1ccc(CNCc2ccc(C(=O)NC)cc2)cc1OCC`, with -7.21%; and `CNC(=O)c1ccc(CNCc2ccc(SC)c(OC)c2)cc1`, with 27%.
Then `CC(C)c1ncc2c(n1)CN(Cc1nc3c(F)cccc3[nH]1)CC2`, with 21%; and `N#Cc1ccc(C(=O)NS(=O)(=O)c2ccc(C#N)c(Cl)c2)cc1`, with -8.83%; and `CN(C(=O)CNCCn1cccn1)C1(C#N)CCCCC1`, with -3.85%.
The figure for `Cc1cc(C)c(C(=O)N2CCOC(c3cccs3)C2)c(=O)[nH]1` (stereo not given) is -6.92%.
With `COc1ccnc(NC(=O)c2cscc2C)c1`, the cytotoxicity at 70.5 h is -2.28%.
`COc1cc(NC(=O)c2cscn2)ncn1`: the cytotoxicity at 70.5 h was determined as 22.1%.
With `N#Cc1ccc(C(=O)NS(=O)(=O)c2ccc(F)c(F)c2)cc1`, the cytotoxicity at 70.5 h worked out at 28.9%.
The figure for `O=C(NCCSCc1cccs1)C1CCCN(C(=O)N2CCCC2)C1` (stereo not given) is -6.45%; for `Cc1[nH]ncc1C(=O)N1CCOC(c2cccs2)C1` (stereo not given) it is 25.7%.
In the case of `c1cncc(CNc2cccc(OCCN3CCCCC3)c2)c1`, the cytotoxicity at 70.5 h is -11.5%.
For `CCOC(C)c1noc(CN2CCN(Cc3ccno3)CC2)n1` (stereo not given), the cytotoxicity at 70.5 h is -3.49%.
Then `CCOC(C)c1noc(CN2CCCN(c3ccccn3)CC2)n1` (stereo not given), with -12.6%; and `CC(C)c1nc(CC(=O)N(C)Cc2ccc3c(c2)OCO3)cs1`, with -6.29%; and `CCN(C(c1cccnc1)c1ccc(F)c(F)c1)S(C)(=O)=O` (stereo not given), with -4.7%.
Then `CCOc1ccc(CC(=O)Nc2cnccc2SCCCO)cc1`, with -6.43%.
With `CCN(C(c1ccc(OC)cc1)c1cccnc1)S(C)(=O)=O` (stereo not given), the cytotoxicity at 70.5 h was -9.72%.
Regarding `CC1CCCN(C(=O)CCNS(=O)(=O)c2cccnc2)C1` (stereo not given), the cytotoxicity at 70.5 h stood at 1.82%.
Then `O=C(NC1CC1)C1CCCN1c1ncnc2ccsc12` (stereo not given), with -9.43%; and `O=C(CCNS(=O)(=O)c1ccccc1)N1CCOC(c2ccccc2)C1` (stereo not given), with -18%.
The figure for `CCN(CC(=O)N(C)C)C(=O)c1cc(-c2cccc(Cl)c2)no1` is 3.05%; for `CCN(CC)C(=O)c1cc(-c2cccc(Cl)c2)no1` it is -5.28%; for `CC(CC#N)N1CCN(C(=O)OC(C)(C)C)CC1` (stereo not given) it is 13.3%.
On to `c1cc(-c2noc(CN3CCc4c(ncn4C4CC4)C3)n2)cs1`, for which the cytotoxicity at 70.5 h was -20.1%.
With `CCNC(=O)CN(CC)C(=O)c1cc(-c2cccc(Cl)c2)no1`, the cytotoxicity at 70.5 h was -0.184%.
With `CC(C)CC(C#N)NC(=O)COC1CCCCC1` (stereo not given), the cytotoxicity at 70.5 h is -8.86%.
As for `CCN(CC)C(=O)CN(C)C(=O)c1cc(-c2cccc(Cl)c2)no1`, the cytotoxicity at 70.5 h is -15.3%.
Consider `CN(CCc1ccncc1)C(=O)C1CSCN1C(=O)C1CCCC1` (stereo not given), for which the cytotoxicity at 70.5 h is -5.06%.
Then `CC(=O)Nc1cccc(CNC(=O)N(C)Cc2ccccc2)c1`, with -8.01%.
Then `O=C(NCCc1nnc2n1CCC2)c1ccccc1OC1CCCC1`, with -9.31%; and `O=S(=O)(c1cccnc1)N1CCCC1COc1ccccc1` (stereo not given), with -4.52%.
Then `CCN(CCC(F)(F)F)S(=O)(=O)c1cccc(F)c1C#N`, with -4.04%.
For the compound `CC(C)Oc1ccccc1C(=O)NCCc1nncn1C`, the cytotoxicity at 70.5 h is -6.83%.
The figure for `c1ccc(-c2nc(CN3CCn4c(nnc4C4CC4)C3)no2)cc1` is -9.58%.
In the case of `CC(C)C1CN(S(=O)(=O)Cc2cccc(C#N)c2)CCS1` (stereo not given), the cytotoxicity at 70.5 h is -9.85%.
The figure for `CC(C)C1CN(S(=O)(=O)c2ccc(C#N)cc2)CCS1` (stereo not given) is -11.1%; for `Cc1cccc(-c2noc(CN3CCn4c(nnc4C4CC4)C3)n2)c1` it is -5%.
The figure for `O=C(CN1CCC[C@@H]1C(=O)O)NCCOc1cccc(C(F)(F)F)c1` is -6.55%.
